The nature of series [1]: Stability, citrate buffer pH, epoxy-phenolic lined cans (Example 1). The settings on record: 1 month.
Description: In this study, a citrate buffer solution was used to adjust the pH of the mixture to pH 4.5, pH 5.5, and pH 6.5 using four different buffer concentrations (i.e., 0, 0.1, 0.3, 0.5%) and two alternative emollients or humectants, i.e., propylene glycol and glycerin. The containers were stored at 50° C. for 1 month and then examined.
Series [2] can be described thus: Stability with different can linings (Example 2). It is filed as physicochemical. To be noted: 4 weeks. On the procedure:
Low buffer levels at a pH of 4.5 or 6.5, including unbuffered pH 4.5, were tested in cans with either epoxy-phenolic, polyamide-imide (PAM), or Micoflex linings. Some of the PAM-lined cans were scratched internally to check for corrosion on bare aluminum. Cans were stored at 4° C., 40° C., and 50° C. for 4 weeks and then examined.

The values that follow come from patent publication US9486394B2, “Pharmaceutical foam” (STIEFEL WEST COAST, LLC, priority 2003, dated 2016).

Consider `CCC[C@@H]1C[C@@H](C(=O)N[C@@H]([C@H]2O[C@H](SC)[C@H](OP(=O)(O)O)[C@@H](O)[C@H]2O)[C@H](C)Cl)N(C)C1` [clindamycin phosphate], for which the “clindamycin phosphate degradation at higher buffer levels” value in series [1] (citrate buffer 0.5%, 0.3% vs 0.1%, 0.0%, 50° C.) is recorded as “higher amount of clindamycin phosphate degradation”. In addition, the “stability of clindamycin phosphate as a function of pH” value in series [1] (pH 4.5, 5.5, 6.5, 50° C., FIG. 3) is on record as “more stable at a lower pH level”. Also, the “clindamycin phosphate stability in PAM-lined container” value in series [2] (FIG. 4) is listed as “unexpectedly high”. The results for the “degradation of clindamycin phosphate” value in series [2] (40° C.) and in series [2] (50° C.) were “moderate degradation” and “relatively severe degradation”, respectively.
